Test results taken from patent publication EP2266984A1, “Pyrido[2,3-d]pyrimidines as Wnt antagonists for treatment of cancer and arthritis” (Deutsches Krebsforschungszentrum Stiftung des öffentlichen …, priority 2009, dated 2010).
Blank lines part the entries; values can stand above or below the compound they belong to.

Assays:
Wnt signalling pathway = assay: Wnt-sensitive reporter gene assay (6xTCF-luciferase, pTOP-FLASH) in Hek293T cells; type: cell-based; conditions: for Normalized Wnt pathway inhibitory activity: 24 h; for IC50: Homo sapiens, HEK-293T, 6xTCF-luciferase, 5nM - 100 microM, 24 h incubation, read-out: IC50 of the Wnt pathway inhibitory activity
Method: To screen for small-molecule modulators of the Wnt signalling pathway, a reporter gene based assay describing the modulation of the TCF4 transcription factor was used. More specifically 4000 Hek293T cells were seeded into 384 high density plates. 24h after seeding a Wnt-sensitive reporter (6xTCF-luciferase (Firefly) (pTOP-FLASH; "Armadillo coactivates transcription driven by the product of the Drosophila segment polarity gene dTCF", Cell, 1997, 88(6), pages 789-99)) and constitutively expressed control reporter (Renilla luciferase pCMV-RL) were transfected into Hek293T. Wnt signaling was stimulated by cotransfecting mouse Wnt1, mouse Frizzled 8 and human LRP6 according to "Casein kinase 1 gamma couples Wnt receptor activation to cytoplasmic signal transduction", Nature, 2005, 438(7069), pages 867-872. 24 h after pathway stimulation compounds were added at a concentration of 10 microM and allowed to incubate for 24 h. For the evaluation of the IC50 the compound was applied in increasing concentrations yielding final concentrations per well of 5nM - 100 microM.

HS68 = assay: Cell line specific cytotoxicity, count of Hoechst labeled nuclei, HS68 fibroblasts; type: cell-based, human; conditions: for Normalized cell count (HS68): normal cells, at least 72 hr
Method: For examination of cell line-specific cytotoxicity, compounds were applied to human colorectal cancer cells (HCT116, denoted (1); SW480, denoted (2); Dld-1, denoted (3)) and human fibroblasts (HFF-1, denoted (4); HS-68, denoted (5)), cultured in Mc Coy's (1) and Dulbecco's Modified Eagles Medium ((2)-(5)), supplemented with 10% ((1)-(3)) and 20% ((4), (5)) fetal calf serum and 1% penicillin/streptomycin. Cells were grown in T75 flasks at 37 °C, 5% CO2 and trypsinized when 60-80% confluent by adding 2 ml of 0.25% Trypsin-EDTA solution. Cells were then re-suspended into culture medium yielding approx. 750 cells, suspended in 45 microl medium, were plated into each well of a black 384-well plate for fluorescence imaging experiments. […] Compound incubation was terminated by (a) fixation and (b) permeabilisation of cells, followed by (c) fluorescence labeling of cell nuclei for cytometric quantification or by immunocytochemistry for microscopic evaluation of cell morphology. The three steps were performed by replacing the solution of the previous step in each well of a 384-well plate by (a) 30 microl PBS (phosphate buffered saline) containing 5% PFA (paraformaldehyde), (b) 30 microl PBS containing 0.2% TritonX-100 and (c) 10 microl PBS containing Hoechst-33342 for cytometry or Hoechst-33342, FITC-(fluorescein isothiocyanate-)labeled alpha-tubulin antibodies and TRITC-(tetramethylrhodamine isothiocyanate-)labeled phalloidin for microscopy. Solutions were incubated for 15 (a,b) and 30 min (c) in the dark at room temperature. Cells were washed twice between each step with 30 microl PBS. The assay system was miniaturized and adapted to automated workflow using liquid-handling robotics.
Cell line-specific cytotoxicity was quantified by counting the number of Hoechst labeled nuclei per well of a 384-well plate using a plate cytometer. Data obtained with the cytometer was analysed using standard data analysis software.
Identified hits were further evaluated by visual inspection of fluorescence micrographs obtained from imaging using a conventional fluorescence microscope.

[1] = test system: human colon carcinoma cells HCT116; assay: Antiproliferative activity against HCT116, count of Hoechst labeled nuclei; type: cell-based; conditions: for Normalized cell count (HCT 116): HCT116 colon carcinoma cells
Method: For examination of cell line-specific cytotoxicity, compounds were applied to human colorectal cancer cells (HCT116, denoted (1); SW480, denoted (2); Dld-1, denoted (3)) and human fibroblasts (HFF-1, denoted (4); HS-68, denoted (5)), cultured in Mc Coy's (1) and Dulbecco's Modified Eagles Medium ((2)-(5)), supplemented with 10% ((1)-(3)) and 20% ((4), (5)) fetal calf serum and 1% penicillin/streptomycin. Cells were grown in T75 flasks at 37 °C, 5% CO2 and trypsinized when 60-80% confluent by adding 2 ml of 0.25% Trypsin-EDTA solution. Cells were then re-suspended into culture medium yielding approx. 750 cells, suspended in 45 microl medium, were plated into each well of a black 384-well plate for fluorescence imaging experiments. 24 - 36 hr later 5 microl compound solution (100 microM compound dissolved in ultra pure water containing 1% DMSO), were added to achieve a final concentration of 10 microM and were incubated for at least 72 hr. Compound incubation was terminated by (a) fixation and (b) permeabilisation of cells, followed by (c) fluorescence labeling of cell nuclei for cytometric quantification or by immunocytochemistry for microscopic evaluation of cell morphology. The three steps were performed by replacing the solution of the previous step in each well of a 384-well plate by (a) 30 microl PBS (phosphate buffered saline) containing 5% PFA (paraformaldehyde), (b) 30 microl PBS containing 0.2% TritonX-100 and (c) 10 microl PBS containing Hoechst-33342 for cytometry or Hoechst-33342, FITC-(fluorescein isothiocyanate-)labeled alpha-tubulin antibodies and TRITC-(tetramethylrhodamine isothiocyanate-)labeled phalloidin for microscopy. Solutions were incubated for 15 (a,b) and 30 min (c) in the dark at room temperature. Cells were washed twice between each step with 30 microl PBS. The assay system was miniaturized and adapted to automated workflow using liquid-handling robotics.
Cell line-specific cytotoxicity was quantified by counting the number of Hoechst labeled nuclei per well of a 384-well plate using a plate cytometer. Data obtained with the cytometer was analysed using standard data analysis software. […]
The examination of the antiproliferative activity against human colon carcinoma cells HCT116 was carried out in analogy to example 203. […] Compounds of the present invention have potent antiproliferative acivity against human colon carcinoma cells as shown for HCT116 in Table 6.

- IC50 (Wnt signalling pathway): 1.6 ± 0.6 µM
Compound: CCOC(=O)c1c(C)nc2c(c(N3CCN(Cc4ccccc4F)CC3)nc(=O)n2-c2ccccc2)c1-c1ccccc1 [Example 150]
- Normalized Wnt pathway inhibitory activity (Wnt signalling pathway; 0.005 microM): 0.8990
- Normalized Wnt pathway inhibitory activity (Wnt signalling pathway; 0.015 microM): 0.8480
- Normalized Wnt pathway inhibitory activity (Wnt signalling pathway; 0.046 microM): 0.8763
- Normalized Wnt pathway inhibitory activity (Wnt signalling pathway; 0.137 microM): 1.0310
- Normalized Wnt pathway inhibitory activity (Wnt signalling pathway; 0.412 microM): 0.8660
- Normalized Wnt pathway inhibitory activity (Wnt signalling pathway; 1.235 microM): 0.6448
- Normalized Wnt pathway inhibitory activity (Wnt signalling pathway; 3.704 microM): 0.3170
- Normalized Wnt pathway inhibitory activity (Wnt signalling pathway; 11.111 microM): 0.2795
- Normalized Wnt pathway inhibitory activity (Wnt signalling pathway; 33.333 microM): 0.1573
- Normalized Wnt pathway inhibitory activity (Wnt signalling pathway; 100.000 microM): 0.1708
- Normalized cell count (HS68) (HS68; 0.005 microM): 1
- Normalized cell count (HS68) (HS68; 0.015 microM): 1.018
- Normalized cell count (HS68) (HS68; 0.046 microM): 1.012
- Normalized cell count (HS68) (HS68; 0.137 microM): 0.9701
- Normalized cell count (HS68) (HS68; 0.412 microM): 0.9865
- Normalized cell count (HS68) (HS68; 1.235 microM): 0.9917
- Normalized cell count (HS68) (HS68; 3.704 microM): 1.106
- Normalized cell count (HS68) (HS68; 11.111 microM): 1.081
- Normalized cell count (HS68) (HS68; 33.333 microM): 1.034
- Normalized cell count (HS68) (HS68; 100.000 microM): 0.6334
- Normalized cell count (HCT 116) ([1]; 0.005 microM): 1
- Normalized cell count (HCT 116) ([1]; 0.015 microM): 1.076
- Normalized cell count (HCT 116) ([1]; 0.046 microM): 1.153
- Normalized cell count (HCT 116) ([1]; 0.137 microM): 1.2
- Normalized cell count (HCT 116) ([1]; 0.412 microM): 1.087
- Normalized cell count (HCT 116) ([1]; 1.235 microM): 1.105
- Normalized cell count (HCT 116) ([1]; 3.704 microM): 0.8597
- Normalized cell count (HCT 116) ([1]; 11.111 microM): 0.4595
- Normalized cell count (HCT 116) ([1]; 33.333 microM): 0.1363
- Normalized cell count (HCT 116) ([1]; 100.000 microM): 0.1263

- IC50 (Wnt signalling pathway): 1.6 ± 0.9 µM
- IC50 ([1]; Homo sapiens, HCT-116, HCT116, read-out: IC50 of the antiproliferation activity): 3.1 ± 0.6 µM
Compound: CCOC(=O)c1c(C)nc2c(c(N3CCN(C/C=C/c4ccccc4)CC3)nc(=O)n2-c2ccccc2)c1-c1ccccc1 [Example 153, 7-Methyl-2-oxo-1,5-diphenyl-4-[4-((E)-3-phenyl-allyl)-piperazin-1-yl]-1,2-dihydro-pyrido[2,3-d]pyrimidine-6-carboxylic acid ethyl ester]
- Normalized Wnt pathway inhibitory activity (Wnt signalling pathway; 0.005 microM): 0.8000
- Normalized Wnt pathway inhibitory activity (Wnt signalling pathway; 0.046 microM): 1.0868
- Normalized Wnt pathway inhibitory activity (Wnt signalling pathway; 0.137 microM): 0.9813
- Normalized Wnt pathway inhibitory activity (Wnt signalling pathway; 0.412 microM): 0.8173
- Normalized Wnt pathway inhibitory activity (Wnt signalling pathway; 1.235 microM): 0.5333
- Normalized Wnt pathway inhibitory activity (Wnt signalling pathway; 3.704 microM): 0.2410
- Normalized Wnt pathway inhibitory activity (Wnt signalling pathway; 11.111 microM): 0.1023
- Normalized Wnt pathway inhibitory activity (Wnt signalling pathway; 33.333 microM): 0.0518
- Normalized Wnt pathway inhibitory activity (Wnt signalling pathway; 100.000 microM): 0.0132
- Normalized cell count (HS68) (HS68; 0.005 microM): 1
- Normalized cell count (HS68) (HS68; 0.015 microM): 1.0005
- Normalized cell count (HS68) (HS68; 0.046 microM): 0.9849
- Normalized cell count (HS68) (HS68; 0.137 microM): 0.9755
- Normalized cell count (HS68) (HS68; 0.412 microM): 0.9186
- Normalized cell count (HS68) (HS68; 1.235 microM): 0.9639
- Normalized cell count (HS68) (HS68; 3.704 microM): 0.9349
- Effect on normal cells (HS-68) (HS68; 10 microM, HS-68 cell line): not affected
- Normalized cell count (HS68) (HS68; 11.111 microM): 0.9432
- Normalized cell count (HS68) (HS68; 33.333 microM): 0.826
- Normalized cell count (HS68) (HS68; 100.000 microM): 0.2108
- Normalized cell count (HCT 116) ([1]; 0.005 microM): 1
- Normalized cell count (HCT 116) ([1]; 0.015 microM): 0.9124
- Normalized cell count (HCT 116) ([1]; 0.046 microM): 0.9327
- Normalized cell count (HCT 116) ([1]; 0.137 microM): 0.9534
- Normalized cell count (HCT 116) ([1]; 0.412 microM): 0.8371
- Normalized cell count (HCT 116) ([1]; 1.235 microM): 0.7255
- Normalized cell count (HCT 116) ([1]; 3.704 microM): 0.538
- Normalized cell count (HCT 116) ([1]; 11.111 microM): 0.1546
- Normalized cell count (HCT 116) ([1]; 33.333 microM): 0.09126
- Normalized cell count (HCT 116) ([1]; 100.000 microM): 0.1143

- IC50 (Wnt signalling pathway): 1.9 ± 0.9 µM
Compound: CCOC(=O)c1c(C)nc2c(c(N3CCN(C(c4ccc(F)cc4)c4ccc(F)cc4)CC3)nc(=O)n2-c2ccccc2)c1-c1ccccc1 [Example 157]
- Normalized Wnt pathway inhibitory activity (Wnt signalling pathway; 0.005 microM): 0.9895
- Normalized Wnt pathway inhibitory activity (Wnt signalling pathway; 0.015 microM): 1.0328
- Normalized Wnt pathway inhibitory activity (Wnt signalling pathway; 0.137 microM): 0.6610
- Normalized Wnt pathway inhibitory activity (Wnt signalling pathway; 0.412 microM): 1.2550
- Normalized Wnt pathway inhibitory activity (Wnt signalling pathway; 1.235 microM): 0.6557
- Normalized Wnt pathway inhibitory activity (Wnt signalling pathway; 3.704 microM): 0.3888
- Normalized Wnt pathway inhibitory activity (Wnt signalling pathway; 11.111 microM): 0.3733
- Normalized Wnt pathway inhibitory activity (Wnt signalling pathway; 33.333 microM): 0.1933
- Normalized Wnt pathway inhibitory activity (Wnt signalling pathway; 100.000 microM): 0.1651
- Normalized cell count (HS68) (HS68; 0.005 microM): 1
- Normalized cell count (HS68) (HS68; 0.015 microM): 1.092
- Normalized cell count (HS68) (HS68; 0.046 microM): 1.081
- Normalized cell count (HS68) (HS68; 0.137 microM): 1.128
- Normalized cell count (HS68) (HS68; 0.412 microM): 1.062
- Normalized cell count (HS68) (HS68; 1.235 microM): 1.132
- Normalized cell count (HS68) (HS68; 3.704 microM): 1.18
- Normalized cell count (HS68) (HS68; 11.111 microM): 1.167
- Normalized cell count (HS68) (HS68; 33.333 microM): 1.2661
- Normalized cell count (HS68) (HS68; 100.000 microM): 1.294
- Normalized cell count (HCT 116) ([1]; 0.005 microM): 1
- Normalized cell count (HCT 116) ([1]; 0.015 microM): 1.101
- Normalized cell count (HCT 116) ([1]; 0.046 microM): 1.031
- Normalized cell count (HCT 116) ([1]; 0.137 microM): 1.151
- Normalized cell count (HCT 116) ([1]; 0.412 microM): 1.072
- Normalized cell count (HCT 116) ([1]; 1.235 microM): 0.9399
- Normalized cell count (HCT 116) ([1]; 3.704 microM): 0.8282
- Normalized cell count (HCT 116) ([1]; 11.111 microM): 0.7256
- Normalized cell count (HCT 116) ([1]; 33.333 microM): 0.3684
- Normalized cell count (HCT 116) ([1]; 100.000 microM): 0.2263
